Here are results for seven compounds from ChEMBL document CHEMBL4304838, “Building Bridges in a Series of Estrogen Receptor Degraders: An Application of Metathesis in Medicinal Chemistry” (ACS Med Chem Lett, 2019).

In brackets after ≈: the same amount, converted by molar mass.

Data set [1] can be described thus: Stability of the compound assessed as parent compound remaining in buffer at pH 7.4 measured after 4 days by 1H-NMR analysis. Type of data set: physicochemical. To be noted: read-out: Stability.
Data set [2] addresses T1, Estrogen receptor (Homo sapiens, UniProt P03372).
T1 sequence (P03372 whole entry): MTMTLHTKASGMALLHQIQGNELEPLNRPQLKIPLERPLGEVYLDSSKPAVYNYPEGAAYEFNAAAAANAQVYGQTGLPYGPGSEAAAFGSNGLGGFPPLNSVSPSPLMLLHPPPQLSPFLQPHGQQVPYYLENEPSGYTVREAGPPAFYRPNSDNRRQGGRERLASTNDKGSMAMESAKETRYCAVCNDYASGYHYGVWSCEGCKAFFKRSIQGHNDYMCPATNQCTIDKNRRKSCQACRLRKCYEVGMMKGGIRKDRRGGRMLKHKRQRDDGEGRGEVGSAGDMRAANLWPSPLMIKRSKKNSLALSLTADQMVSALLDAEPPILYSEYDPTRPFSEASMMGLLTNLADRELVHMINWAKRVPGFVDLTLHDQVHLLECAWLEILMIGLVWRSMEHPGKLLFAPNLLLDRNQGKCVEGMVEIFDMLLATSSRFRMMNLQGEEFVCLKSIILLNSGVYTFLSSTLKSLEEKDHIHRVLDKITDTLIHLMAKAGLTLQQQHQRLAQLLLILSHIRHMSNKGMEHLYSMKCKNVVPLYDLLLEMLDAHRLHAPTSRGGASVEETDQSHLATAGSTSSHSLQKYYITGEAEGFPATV
Description: Induction of ERalpha degradation in human MCF7 cells assessed as downregulation of ER alpha receptor expression measured after 18 to 22 hrs by immunofluorescence assay

The conditions of data set [3]: human, plasma.
Description: Fraction unbound in human plasma by equilibrium dialysis method
Data set [4] in a line: physchem. Particulars: buffer, pH 7.4.
The nature of data set [5]: in vitro. Particulars: rat, hepatocytes.
Data set [6] in a line: in vitro. Particulars: human, hepatocytes.
Data set [7] addresses T1, Estrogen receptor. Nature of the data set: biochemical.
Description: Displacement of fluorescent labelled fluormone ES2 from human recombinant GST tagged ER alpha LBD ( 282 to 595 residues) expressed in baculovirus infected insect cells measured after 20 mins by TR-FRET Lanthascreen assay
Data set [8] is described as follows: Half-life in rat at 0.5 mg/kg, iv. Type of data set: ADME, organism-based. To be noted: in vivo.
Data set [9] in a line: Volume of distribution at steady state in rat at 0.5 mg/kg, iv or 1 mg/kg, po. Type of data set: ADME, organism-based. Particulars: in vivo, read-out: Vdss.
Data set [10] in a line: Plasma clearance in rat at 0.5 mg/kg, iv or 1 mg/kg, po. Type of data set: ADME, organism-based.
The nature of data set [11]: Half-life in rat at 1 mg/kg, po. To be noted: in vivo. Type of data set: ADME, organism-based.
Data set [12] is described as follows: Stability of the compound assessed as parent compound remaining in buffer at pH 7.4 measured after 3 days by 1H-NMR analysis. Type of data set: physicochemical. Particulars: read-out: Stability.
Data set [13] in a line: Acid dissociation constant, pKa of the compound in potassium chloride at 20 degC by UV absorption analysis. Type of data set: physicochemical.
A short description of data set [14]: Base dissociation constant, pKa of the compound in potassium chloride at 20 degC by UV absorption analysis. Type of data set: physicochemical.
Data set [15] can be described thus: Aqueous solubility of the compound in phosphate buffer at pH 7.4 at 25 degC after 24 hrs. Type of data set: physicochemical.
Data set [16] has as its target Cytochrome P450 3A4 (Homo sapiens, UniProt P08684). The data set is described as follows: Inhibition of CYP3A4 (unknown origin). Type of data set: ADME.
Data set [17] concerns the target Cytochrome P450 2D6 (Homo sapiens, UniProt P10635). Nature of the data set: Inhibition of CYP2D6 (unknown origin). Type of data set: ADME.
Data set [18] deals with Cytochrome P450 2C9 (Homo sapiens, UniProt P11712). Nature of the data set: Inhibition of CYP2C9 (unknown origin). Type of data set: ADME.
Data set [19] concerns the target Cytochrome P450 2C19 (Homo sapiens, UniProt P33261). The data set is described as follows: Inhibition of CYP2C19 (unknown origin). Type of data set: ADME.
Data set [20] deals with T2, Cytochrome P450 1A2 (Homo sapiens, UniProt P05177).
T2 sequence (P05177 whole entry): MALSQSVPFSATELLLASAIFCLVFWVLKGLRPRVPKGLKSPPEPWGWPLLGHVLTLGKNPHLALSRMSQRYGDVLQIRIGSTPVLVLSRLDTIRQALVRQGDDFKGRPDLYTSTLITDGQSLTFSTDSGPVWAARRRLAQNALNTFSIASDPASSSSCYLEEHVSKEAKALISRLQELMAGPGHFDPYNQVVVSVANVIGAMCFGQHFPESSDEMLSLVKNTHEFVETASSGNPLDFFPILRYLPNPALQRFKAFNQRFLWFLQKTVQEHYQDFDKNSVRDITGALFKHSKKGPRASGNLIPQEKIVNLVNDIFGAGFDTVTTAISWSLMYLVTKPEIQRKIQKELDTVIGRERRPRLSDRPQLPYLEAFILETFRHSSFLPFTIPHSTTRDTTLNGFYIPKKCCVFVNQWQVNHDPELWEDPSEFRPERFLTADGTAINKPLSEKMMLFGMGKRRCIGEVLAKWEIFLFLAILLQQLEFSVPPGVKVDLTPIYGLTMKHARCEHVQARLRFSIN
The data set is described as follows: Inhibition of CYP1A2 (unknown origin). Type of data set: ADME.

Data set [21] can be described thus: AUC in rat at 1 mg/kg, po. Type of data set: ADME, organism-based. Particulars: in vivo.
Data set [22] is described as follows: Oral bioavailability in rat at 1 mg/kg. Type of data set: ADME, organism-based. To be noted: in vivo.
Data set [23] in a line: Stability of the compound assessed as parent compound remaining in buffer at pH 7.4 measured after 8 days by 1H-NMR analysis. Type of data set: physicochemical. To be noted: read-out: Stability.

Sequence of Cytochrome P450 2D6 (P10635 whole entry): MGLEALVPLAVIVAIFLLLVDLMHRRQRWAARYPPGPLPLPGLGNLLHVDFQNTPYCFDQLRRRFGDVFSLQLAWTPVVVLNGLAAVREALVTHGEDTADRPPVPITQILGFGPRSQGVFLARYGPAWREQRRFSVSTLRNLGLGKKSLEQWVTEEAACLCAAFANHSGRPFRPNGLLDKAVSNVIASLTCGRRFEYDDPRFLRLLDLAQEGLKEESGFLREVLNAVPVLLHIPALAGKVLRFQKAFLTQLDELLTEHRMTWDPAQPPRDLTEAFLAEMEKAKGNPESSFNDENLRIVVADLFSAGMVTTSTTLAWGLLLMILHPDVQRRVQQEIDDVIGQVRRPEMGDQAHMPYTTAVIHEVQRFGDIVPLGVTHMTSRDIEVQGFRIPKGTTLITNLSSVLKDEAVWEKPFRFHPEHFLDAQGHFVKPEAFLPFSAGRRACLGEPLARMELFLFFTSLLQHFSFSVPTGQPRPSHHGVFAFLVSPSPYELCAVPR
Sequence of Cytochrome P450 2C19 (P33261 whole entry): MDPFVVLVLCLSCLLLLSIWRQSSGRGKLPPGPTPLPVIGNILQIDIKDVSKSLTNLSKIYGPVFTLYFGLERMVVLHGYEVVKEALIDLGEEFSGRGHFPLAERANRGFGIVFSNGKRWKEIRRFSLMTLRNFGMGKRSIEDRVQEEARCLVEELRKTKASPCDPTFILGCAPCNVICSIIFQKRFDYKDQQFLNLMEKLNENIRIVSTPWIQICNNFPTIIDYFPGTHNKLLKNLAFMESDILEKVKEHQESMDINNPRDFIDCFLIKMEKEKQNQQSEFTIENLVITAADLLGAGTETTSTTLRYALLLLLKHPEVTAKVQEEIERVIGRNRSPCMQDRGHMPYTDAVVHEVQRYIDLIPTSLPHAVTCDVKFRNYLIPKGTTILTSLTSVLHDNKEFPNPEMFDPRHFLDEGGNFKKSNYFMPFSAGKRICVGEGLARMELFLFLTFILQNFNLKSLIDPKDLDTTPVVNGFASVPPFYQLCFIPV
Sequence of Cytochrome P450 2C9 (P11712 whole entry): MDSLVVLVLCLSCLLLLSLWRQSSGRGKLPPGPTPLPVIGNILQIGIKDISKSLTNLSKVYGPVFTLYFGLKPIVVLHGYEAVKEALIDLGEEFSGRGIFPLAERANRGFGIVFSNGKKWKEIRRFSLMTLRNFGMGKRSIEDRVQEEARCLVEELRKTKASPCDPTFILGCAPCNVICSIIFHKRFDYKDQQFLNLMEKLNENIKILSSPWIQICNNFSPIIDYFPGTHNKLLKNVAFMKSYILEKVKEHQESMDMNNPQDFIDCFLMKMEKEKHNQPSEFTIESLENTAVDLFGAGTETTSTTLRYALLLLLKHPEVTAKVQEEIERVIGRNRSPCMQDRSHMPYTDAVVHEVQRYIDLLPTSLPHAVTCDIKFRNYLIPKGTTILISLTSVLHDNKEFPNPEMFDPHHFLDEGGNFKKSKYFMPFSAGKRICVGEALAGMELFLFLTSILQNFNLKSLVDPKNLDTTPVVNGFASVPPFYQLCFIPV
Sequence of Cytochrome P450 3A4 (P08684 whole entry): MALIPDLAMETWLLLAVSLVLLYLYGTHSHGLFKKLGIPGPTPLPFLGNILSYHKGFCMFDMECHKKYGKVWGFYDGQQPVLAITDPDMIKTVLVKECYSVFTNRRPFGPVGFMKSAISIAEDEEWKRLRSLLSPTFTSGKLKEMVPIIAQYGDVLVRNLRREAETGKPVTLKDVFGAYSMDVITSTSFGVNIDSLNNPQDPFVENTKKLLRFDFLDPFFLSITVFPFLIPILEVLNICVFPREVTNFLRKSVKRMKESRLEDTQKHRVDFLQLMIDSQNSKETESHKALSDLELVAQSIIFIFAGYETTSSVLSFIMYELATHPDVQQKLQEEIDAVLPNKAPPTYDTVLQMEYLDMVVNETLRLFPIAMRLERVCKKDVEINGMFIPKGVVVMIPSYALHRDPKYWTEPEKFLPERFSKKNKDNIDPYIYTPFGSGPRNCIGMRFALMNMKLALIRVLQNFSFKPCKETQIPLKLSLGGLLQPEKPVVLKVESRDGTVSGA

By IC50 is commonly meant the midpoint of a concentration-inhibition curve. What is called logD is the decadic logarithm of the distribution of all forms, ionised or not, between an organic phase and buffer at a given pH. High values mean higher lipophilicity, low ones lower lipophilicity. Usually hepatocyte CLint stands for the capacity of the preparation to metabolise the compound, expressed as a volume cleared per time. Read a high hepatocyte CLint as rapid turnover. Regarding `C[C@@H]1Cc2c([nH]c3ccccc23)[C@@](C)(c2c(F)cc(/C=C/C(=O)O)cc2F)N1CC(C)(C)F`, the remaining at 96 h in [1] came out at 58%. Further, the IC50 in data set [2] was 1.26 nM; in data set [7], 0.398 nM. This compound showed a Fu in data set [3] of 0.28%. The logD in [4] was 2.7. Also, the hepatocyte CLint is 9 µL/min/1e6 cells in [5] and 13 µL/min/1e6 cells in data set [6].

What is called half-life is the time needed for the level to fall by half in the phase considered. A higher half-life goes with slow loss. By pKa is commonly meant the negative logarithm of the acid dissociation constant. A high value points to a group that holds its proton tightly. As a reminder, the solubility is the dissolved amount per volume that the medium holds. A higher solubility goes with much dissolved substance. The term AUC denotes concentration integrated over time. A higher AUC goes with more exposure. For orientation: bioavailability means dose-corrected exposure relative to a reference, in per cent. Low values mean little systemic uptake, high ones much systemic uptake. As to `CC(C)(F)CN1[C@@H]2CCC[C@@]1(c1c(F)cc(/C=C/C(=O)O)cc1F)c1[nH]c3ccccc3c1C2`, the half-life was 2.8 h in data set [8] and 3.1 h in data set [11]. Further, the Vd in data set [9] was 1.6 L/kg. This compound also returned a clearance in [10] of 10 mL/min/kg. Also, the remaining at 72 h in data set [12] was determined as 100%. Moreover, the pKa in [13] stood at 3.8; in data set [14] it was 5.7. Besides, the solubility at 24 h in data set [15] stood at 734 µM (≈ 344 µg/mL). Moreover, the IC50 in data set [16] is above 30000 nM; in data set [17], above 30000 nM; in data set [18], above 30000 nM; in data set [19] it was above 30000 nM; in data set [20], above 30000 nM; in data set [2], 15.8 nM. The IC50 in data set [7] is 0.794 nM. In data set [21], the AUC turned out to be 2.7 µM·h. The bioavailability in data set [22] was 100%. The compound also yielded a Fu in data set [3] of 0.45%. Further, in data set [4], the logD turned out to be 2.9. For the same compound, the figures for the hepatocyte CLint in data set [5] and in [6] were 26 µL/min/1e6 cells and 8 µL/min/1e6 cells, respectively.

`CC(C)(F)CN1[C@@H]2CCC[C@@]1(c1c(F)cc(OCCN3CC(CF)C3)cc1F)c1[nH]c3ccccc3c1C2`: in [23], the remaining at 192 h stood at 100%. For the same compound, the IC50 in data set [2] and in data set [7] was 2 nM throughout. Besides, the Fu in [3] was 0.17%. In addition, the logD in [4] came out at 5.3. Further, the hepatocyte CLint in data set [5] worked out at 17 µL/min/1e6 cells; in data set [6] it was 4 µL/min/1e6 cells.

`C[C@@H]1Cc2c([nH]c3ccccc23)[C@@H](c2c(F)cc(OCCN3CC(CF)C3)cc2F)N1CC(C)(C)F`: the remaining at 192 h in data set [23] is 100%. Moreover, the logD in data set [4] was above 4.4. Moreover, the hepatocyte CLint in [6] was below 1 µL/min/1e6 cells.

As to `CC(C)(F)CN1[C@@H]2C=CC[C@@]1(c1c(F)cc(/C=C/C(=O)O)cc1F)c1[nH]c3ccccc3c1C2`, in data set [23], the remaining at 192 h is 100%. Besides, the values for the IC50 in data set [2] and in data set [7] were 1.58 nM and 0.631 nM, respectively. Also, the Fu in [3] was determined as 0.3%. In [4], this compound registered a logD of 2.8. In addition, the hepatocyte CLint in [5] stood at 8 µL/min/1e6 cells; in data set [6] it was 14 µL/min/1e6 cells.

Consider `C[C@@H]1Cc2c([nH]c3ccccc23)[C@@](C)(c2c(F)cc(OCCN3CC(CF)C3)cc2F)N1CC(C)(C)F`, for which, in [23], the remaining at 192 h was found to be 75%. Also, the IC50 in data set [2] is 0.251 nM; in [7], 1 nM. Besides, in [3], the Fu is 0.05%. For the same compound, the logD in data set [4] is above 4.4. Also, the intrinsic metabolic clearance (hepatocyte CLint) in [5] was found to be 18 µL/min/1e6 cells.

For `C[C@@H]1Cc2c([nH]c3ccccc23)[C@@H](c2c(F)cc(/C=C/C(=O)O)cc2F)N1CC(C)(C)F` [AZD-9496], the remaining at 72 h in data set [12] is 92%. This compound also registered a Fu in data set [3] of 0.26%. Besides, the hepatocyte CLint in [5] is 5 µL/min/1e6 cells; in [6], 31 µL/min/1e6 cells.
